From US20030161893A1, “PTPase inhibitors and methods of using the same” (priority 2001, published 2003)

Legend:
[1] = system: NB4 cells; assay: NB4 cell differentiation (NBT reduction, CD11b); assay type: cell-based, human
Description: Differentiation of AML cell lines was assessed by their ability to produce superoxide as measured by reduction of NBT to formazan and by analysis of expression of CD11b surface marker by flow cytometry. For NBT reduction, each cell suspension was mixed with an equal volume of solution containing 1 mg/ml of NBT (Sigma) and 2.5 μg/ml of TPA for 30 minutes at 37° C. After incubation, cells containing the purple formazan deposits and cells devoid of NBT-reducing activity (white cells) in each sample were determined by counting 200 cells under microscope. Data is expressed as a percentage based on the following ratio: purple cells/purple+white cells. For analysis of cell surface antigens, cells were exposed to phycoerythrin (PE)-conjugated murine anti-human CD11b (DAKO Corp., Carpinteria, Calif.). Analysis of fluorescence was performed on a FACScan flow cytometer (Beckton Dickinson, Mountain View, Calif.).

[2] = system: MDA231 cells; assay: Cell proliferation assay (MTT), MDA231 breast cancer cells; assay type: cell-based, human
Description: For cell proliferation assays, cells were grown in 10% FCS culture medium containing various amounts of IFNs and/or sodium stibogluconate in 96 well plates and cultured at 37° C. for 3 or 6 days as indicated. The numbers of viable cells in proliferation assays were determined by MTT assays as described in Phatak et al., J. Immunol. 167, 3391 (2001).

[3] = system: Stat1; assay: IFN-alpha-induced Stat1 tyrosine phosphorylation, WM9 cells; assay type: cell-based, human; settings: WM9, 5 hours post-stimulation
Description: (§1) For induction of Stat1 tyrosine phosphorylation by IFN-alpha in the absence or presence of sodium stibogluconate, cells grown in 10% FCS RPMI 1640 medium at 37° C. were stimulated with IFN-alpha (50 u/ml) for various time points and treated with or without sodium stibogluconate for 5 minutes prior to termination by lysing the cells in cold lysis buffer (1% NP-40; 50 mM Tris, pH 7.4; 100 mM NaCl; 1 mM EDTA, 10% glycerol, 10 mM sodium molybdic acid and 4 mM AEBSF).
(§2) Cell lysates were prepared by lysing cells in cold lysis buffer for 30 min and cleared by centrifuging at 14,000 rpm at 4° C. for 15 min. For SDS-PAGE, cell lysates were mixed with equal volume of 2×SDS-PAGE sample buffer, heated at 90° C. for 5 min and separated in 10% SDS-PAGE gels. Cellular proteins in SDS-PAGE gels were transferred to nitrocellulose membrane (Schleicher & Schuell, Keene, N.H.), blocked in 5% milk, probed with antibodies and detected by using an enhanced chemiluminescence kit (ECL, Amersham, Arlington Heights, Ill.).

[4] = system: Stat1; assay: IFN-alpha-induced Stat1 tyrosine phosphorylation, DU145 cells; assay type: cell-based, human; settings: DU145, 5 hours post-stimulation
Description: as §1, §2

[5] = target: T1, Flag-PRL-1 (Homo sapiens, UniProt Q93096); assay: Immunocomplex PTPase assay, Flag-PRL-1 NIH3T3 transfectants; assay type: cell-based; settings: cells treated 5 min
T1 construct: expressed in transfected cells
T1 sequence (Q93096 whole entry): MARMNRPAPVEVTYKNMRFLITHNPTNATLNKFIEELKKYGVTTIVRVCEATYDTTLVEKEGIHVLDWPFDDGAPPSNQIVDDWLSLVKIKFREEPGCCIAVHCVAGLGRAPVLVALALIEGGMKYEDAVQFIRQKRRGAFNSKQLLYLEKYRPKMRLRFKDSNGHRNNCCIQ
Description: (§3) Immunocomplex PTPase assays were performed to assess the effects of sodium stibogluconate on intracellular PTPases. Cells were untreated or treated with sodium stibogluconate for 5 minutes, washed with fresh medium and then lysed in cold lysis buffer (50 mM Tris, pH 7.4; 150 mM NaCl; 1% NP40; 2 mM PMSF; 20 ,g/ml of Aprotinin). The lysates were incubated with an anti-Flag antibody in immunoprecipitation assays. The immunocomplexes were collected with protein G sepharose beads (Pharmacia) and washed in cold lysis buffer for 4 times. […] 100 μL of malachite green solution (UBI) was added to each reaction prior to measurement of OD660 to quantify the amounts of free phosphate cleaved by the PTPases from the peptide substrate (Pathak et al., J. Imumol. 167, 3391 (2001)). The remaining 10% contents of individual samples were analyzed by SDS-PAGE/Western blotting to quantify the relative amounts of the phosphatase proteins. […]
(§4) The effects of sodium stibogluconate on intracellular PTPases were assessed using NIH3T3 or WM9 transfectants. […]

[6] = target: T2, Flag-PRL-3 (Homo sapiens, UniProt O75365); assay: Immunocomplex PTPase assay, Flag-PRL-3 NIH3T3 transfectants; assay type: cell-based; settings: cells treated 5 min
T2 construct: expressed in transfected cells
T2 sequence (O75365 whole entry): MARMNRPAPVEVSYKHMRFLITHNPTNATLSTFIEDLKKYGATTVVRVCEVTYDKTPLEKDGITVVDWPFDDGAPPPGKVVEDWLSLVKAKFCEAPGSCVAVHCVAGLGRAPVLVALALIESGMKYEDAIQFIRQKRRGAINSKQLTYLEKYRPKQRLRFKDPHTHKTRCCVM
Description: as §3, §4

[7] = system: HEY cells; assay: Cell growth assay (MTT), HEY ovarian cancer cells; assay type: cell-based, human; settings: 100 μg/ml, day 6
Description: (§5) NIH3T3 (Yi, et al., Blood 85, 87 (1995)), WM9 (Forsberg, et al., Proc. Nat. Acad Sci. USA 90, 393 (1993)), DU145 (Mickey, et al., Cancer Res. 37, 4049 (1977)), LoVo (Drewinko, et al., Cancer Res. 36, 467 (1976)), HEY (Buick, et al., Cancer Res. 45, 3668 (1985)), U251 (Yoshida, et al., Cancer 50, 410 (1982)), A549 (Giard, et al., J. Natl. Cancer Inst. 51, 1417 (1973)) and SK-N-SH (Helson, et al., Cancer Res. 35, 2594 (1975)) cell lines have been described and were cultured in RPMI 1640 supplemented with 10% fetal calf serum (FCS). For measurement of sodium stibogluconate effects on cell growth in vitro, cells were cultured in the absence (−) or presence (+) of various amounts of sodium stibogluconate for 6 days with viable cells quantified by MTT assays (Mosmann, J. Imunol. Methods 65, 55 (1983)). Percentages of growth inhibition by sodium stibogluconate were calculated (+/−×%).

[8] = system: WM9 PRL-1R86 transfectant; assay: Growth of WM9 PRL-1R86 transfectant (MTT); assay type: cell-based, human; settings: 50 or 100 μg/ml, 6 days
Description: as §5
The effects of sodium stibogluconate on intracellular PTPases were assessed using NIH3T3 or WM9 transfectants. NIH3T3 or WM9 cells were transfected with the pBabepuro vector (V) or pBabepuro expression constructs of Flag-tagged PRLs using Lipofectamine (BRL) following the manufacturer's procedures. […]

[9] = system: PML/RAR-alpha chimeric protein; assay: PML/RAR-alpha chimeric protein expression in NB4 cells; assay type: cell-based, human
[10] = cited from earlier work

## O.O.O.O.O.O.O.O.O.O=C([O-])[C@@H]1[O][Sb]2([O-])([O][Sb]34([OH])[O][C@H]([C@H](O)CO)[C@H]([O]3)[C@H](C(=O)[O-])[O]4)[O][C@H]([C@H](O)CO)[C@@H]1[O]2.[Na+].[Na+].[Na+] [sodium stibogluconate]
[1]
  interaction with ATRA in differentiation induction: did not synergize with ATRA
[1]; 6 days with drug (10 or 100 μg/ml), washed, 6 days without
  reversibility of induced NB4 differentiation after drug removal: not reversed
[2]; 50 μg/ml and 100 μg/ml, day 6 culture
  killing of MDA231 cells, single agent: killed all cells
[2]; day 6
  IFN-alpha-induced growth inhibition of MDA231 in presence of drug: augmented
[3]
  IFN-alpha-induced Stat1 tyrosine phosphorylation: Enhanced
[4]
  IFN-alpha-induced Stat1 tyrosine phosphorylation: Enhanced
[5]
  PTPase activity of anti-Flag immunocomplexes, Flag-PRL-1: little PTPase activities
[6]
  PTPase activity of anti-Flag immunocomplexes, Flag-PRL-3: lack of PTPase activity
[7]
  cell killing, HEY: near-complete cell killing
[8]
  growth inhibition of R86 cells at higher doses: only modest growth inhibition
[9]
  expression levels of PML/RAR-alpha chimeric protein: no detectable effect
[10]; 10-20 mg/kg/day
  serum levels at standard dosage for leishmaniasis treatment: ≥ 10000 ng/mL
[10]; human, in vivo
  clinical side effects at higher dosages: reversible nonspecific ECG changes and renal defects
  clinical tolerability at therapeutic dosages: well tolerated
